From ChEMBL document CHEMBL2150848, “Artificial ladder-shaped polyethers that inhibit maitotoxin-induced Ca2+ influx in rat glioma C6 cells” (Bioorg Med Chem Lett, 2012) come the findings set out here.

Activity calls are given as the source filed them. The calls are words filed in the database; no cut-off is given here.

For data set [1], the system named is C6. In words: Inhibition of MTX-induced calcium influx in rat glioma C6 cells using 45CaCl2 incubated for 12 mins prior to MTX-challenge measured after 12 mins by scintillation counting. The data set is classed as functional, cell-based.
Data set [2] deals with C6. In words: Inhibition of MTX-induced calcium influx in rat glioma C6 cells using 45CaCl2 at 10 uM incubated for 12 mins prior to MTX-challenge measured after 12 mins by scintillation counting relative to untreated-control. The data set is classed as functional.
Data set [3] concerns C6. In words: Inhibition of MTX-induced 45Ca2+ influx in rat glioma C6 cells. The data set is classed as functional, cell-based.
The subject of data set [4] is Mus musculus. In words: Toxicity in ip dosed mouse. The conditions noted are these: in vivo. The data set is classed as organism-based.

As usually defined, the EC50 is the concentration at which the effect is half-maximal. For the molecule `C[C@@]12CC[C@@H]3O[C@@H]4C[C@@H]5O[C@@H]6C[C@@H]7O[C@]8(C)CC[C@@H]9O[C@H](CO)[C@@H](O)C[C@H]9O[C@H]8C[C@H]7O[C@H]6CC[C@@]5(C)O[C@H]4C[C@H]3O[C@H]1C[C@H]1O[C@@H](CCOCc3ccccc3)[C@H](OCc3ccccc3)C[C@@H]1O2`, the EC50 in data set [1] is 15 µM.
For orientation: inhibition means the drop in the measured response relative to a control, in per cent. Consider `C[C@@]12CC[C@@H]3O[C@@H]4C[C@@H]5O[C@@H]6C[C@H](O)[C@@H](CO)O[C@H]6CC[C@@]5(C)O[C@H]4C[C@H]3O[C@H]1C[C@H]1O[C@@H](CCOCc3ccccc3)[C@H](OCc3ccccc3)C[C@@H]1O2`, for which, in data set [1], the EC50 was determined as 2 µM and the inhibition result was “Dose-dependent effect”. Moreover, the inhibition at 10 µM in data set [2] amounted to 80%.
In turn, `C=C(C=O)C[C@@H]1C[C@H](O)[C@@H]2O[C@@H]3C[C@]4(C)O[C@@H]5/C=C\C[C@@H]6O[C@H]7[C@H](C/C=C\C[C@H]6O[C@H]5CCC[C@H]4O[C@H]3C[C@H]2O1)O[C@@H]1C[C@@H]2O[C@@H]3CC(=O)O[C@H]3C[C@@H](C)C[C@@]2(C)O[C@H]1C[C@@H]7C` [BREVETOXIN A] had an EC50 in data set [3] of 16 µM.
In the case of `C=C(C=O)C[C@@H]1C[C@H](O)[C@]2(C)O[C@@H]3C[C@@H]4O[C@@H]5C[C@]6(C)O[C@]7(C)CC[C@@H]8O[C@@H]9C[C@]%10(C)O[C@@H]%11C(C)=CC(=O)O[C@H]%11C[C@H]%10O[C@H]9C[C@@H](C)[C@H]8O[C@H]7C[C@H]6O[C@@]5(C)C/C=C\[C@H]4O[C@H]3C[C@H]2O1` [BREVETOXIN B], the inhibition entry in data set [1] was “Active”. In data set [3], this molecule had an EC50 of 13 µM.
What is called LD50 is the dose at which mortality reaches 50%. A lower LD50 goes with a more toxic substance. `C=CC[C@H](C)[C@H](C)C[C@@H](O)[C@H](O)[C@@H]1CC[C@@]2(C)O[C@@]3(C)C[C@@]4(C)O[C@H]5/C=C\C[C@H]6O[C@H]7C[C@H]8O[C@H]9C[C@@]%10(C)O[C@@](C)([C@@H]%11CC[C@H]%12O[C@@]%13(C)C[C@H]%14O[C@@]%15(C)C[C@H]%16O[C@@]%17(C)C[C@@H](O)[C@H]([C@@H]%18O[C@H]%19[C@H](O)[C@@H](O)[C@H](C[C@H](O)C[C@@H](O)[C@@H]%20O[C@H]%21[C@H](O)[C@@H](O)[C@H]([C@@H]%22O[C@@H]%23[C@H](O)[C@H]%24O[C@H]%25C[C@H]%26O[C@@H](C[C@H](O)[C@@H](O)[C@H]%27O[C@H]%28[C@H](O)[C@H]%29O[C@H]%30C[C@H]%31O[C@H]%32[C@@H](O)[C@@H](O)[C@H]([C@H](C)[C@H](O)[C@H](C)CC[C@H](OS(=O)(=O)[O-])[C@H](O)[C@H](C)C[C@@H](O)C(=C)/C(C)=C/CO)O[C@@H]%32[C@H](O)C[C@]%31(C)O[C@@H]%30C[C@]%29(C)O[C@@H]%28C[C@H]%27O)[C@H](OS(=O)(=O)[O-])[C@H](O)[C@@H]%26O[C@@H]%25C[C@@H]%24O[C@H]%23[C@H](O)[C@H]%22O)O[C@H]%21C[C@H]%20O)O[C@H]%19C[C@H]%18O)O[C@@H]%17[C@H](O)[C@]%16(C)O[C@@H]%15CC[C@]%14(C)O[C@@H]%13C[C@@H]%12O%11)[C@H](O)C[C@@H]%10O[C@]9(C)CC[C@]8(C)O[C@]7(C)C[C@@H]6O[C@@H]5C[C@@H]4O[C@@H]3C[C@@H]2O1.[Na+].[Na+]` [MAITOTOXIN] came in with an LD50 in data set [4] of 0.05 µg/kg.
